Laboratory results published in publication PMC6268315, “Investigating the Spectrum of Biological Activity of Substituted Quinoline-2-Carboxamides and Their Isosteres ^†” (Molecules, 2012).
≈ marks a conversion by molar mass, not a printed value. Like-named read-outs stand apart in the source and are kept apart here.

What was measured:
[1] = tested on: human monocytic leukemia THP-1 cells; conditions: for lethal effect on THP-1 cells at the highest dose achieved in the medium: 100 µmol/L; for LD50: human, 24 h
[2] = tested on: M. avium complex CIT19/06; experiment: In vitro antimycobacterial evaluation (alamarBlue); type: cell-based; conditions: Mycobacterium avium, 120 h, read-out: MIC/IC90 M. avium complex
M. kansasii CIT11/06 = experiment: In vitro antimycobacterial evaluation (alamarBlue); type: cell-based; conditions: Mycobacterium kansasii, read-out: MIC/IC90 M. kansasii
[3] = tested on: M. avium paratuberculosis ATCC19698; experiment: In vitro antimycobacterial evaluation (alamarBlue); type: cell-based; conditions: Mycobacterium avium, 264 h, read-out: MIC/IC90 M.avium paratuberculosis
[4] = tested on: photosynthetic electron transport (PET) in spinach chloroplasts; experiment: Inhibition of photosynthetic electron transport (PET) in spinach chloroplasts; type: biochemical, Spinacia oleracea L.; conditions: photoreduction of DCPIP, pH 7.2
Experimental: Chloroplasts were prepared from spinach (Spinacia oleracea L.) according to Masarovicova and Kralova. The inhibition of photosynthetic electron transport (PET) in spinach chloroplasts was determined spectrophotometrically (Genesys 6, Thermo Scientific, USA), using an artificial electron acceptor 2,6-dichlorophenol-indophenol (DCIPP) according to Kralova et al., and the rate of photosynthetic electron transport was monitored as a photoreduction of DCPIP. The measurements were carried out in phosphate buffer (0.02 mol/L, pH 7.2) containing sucrose (0.4 mol/L), MgCl2 (0.005 mol/L) and NaCl (0.015 mol/L). The chlorophyll content was 30 mg/L in these experiments and the samples were irradiated (~100 W/m^2 with 10 cm distance) with a halogen lamp (250 W) using a 4 cm water filter to prevent warming of the samples (suspension temperature 22 °C). The studied compounds were dissolved in DMSO due to their limited water solubility. […] The inhibitory efficiency of the studied compounds was expressed by IC50 values, i.e., by molar concentration of the compounds causing 50% decrease in the oxygen evolution rate relative to the untreated control.

[5] = tested on: M. tuberculosis and other atypical mycobacterial strains; experiment: In vitro antimycobacterial screening, results in words; type: cell-based, Mycobacterium sp.; conditions: low solubility, precipitation in test media
[6] = tested on: human monocytic leukemia THP-1 cells; conditions: assessed in this line formerly; cited from earlier work

SMILES | MIC [2] [µM] | MIC (M. kansasii CIT11/06; 120 h, CIT11/06, 5 days) [µM] | MIC ([3]; ATCC19698, 11 days) [µM] | MIC ([2]; CIT19/06, 5 days) [µM] | IC50 [4] [µM] | melting point [°C] | also measured
O=C(c1ccc2ccccc2c1)N1CCCC1 [Compound 22, 1-(2-Naphthoyl)pyrrolidine] | 554 (≈ 125 µg/mL) | 111 (≈ 25 µg/mL) | 111 (≈ 25 µg/mL) | – | – | – | lethal effect on THP-1 cells at the highest dose achieved in the medium [1]: did not lead to the 100% lethal effect; LD50 [1]: >100 µmol/L
NNC(=O)c1ccncc1 [INH, isoniazid, reference compound] | – | < 72.9 | – | < 72.9 | – | – | MIC [3]: > 729 µM
COc1ccccc1NC(=O)c1ccc2ccccc2c1 [Compound 32a, N-(2-Methoxyphenyl)-2-naphthamide] | – | 451 (≈ 125 µg/mL) | 216 (≈ 59.9 µg/mL) | 451 (≈ 125 µg/mL) | 763 | 82 | –
O=C(NC1CCCCCCC1)c1ccc2ccccc2n1 [Compound 8, N-Cyclooctylquinoline-2-carboxamide] | – | – | – | – | 415 | 72 to 73 | antimycobacterial activity [5]: no activity
CC(C)NC(=O)c1ccc2ccccc2n1 [Compound 1, N-Isopropylquinoline-2-carboxamide] | – | 1170 (≈ 250 µg/mL) | 1170 (≈ 250 µg/mL) | 583 (≈ 125 µg/mL) | – | 75 to 76 | –
CC[C@@]1(O)C(=O)OCc2c1cc1n(c2=O)Cc2cc3ccccc3nc2-1 [camptothecin] | – | – | – | – | – | – | LD50 [6]: 0.16 ± 0.07 µmol/L
Cc1cccc(NC(=O)c2ccc3ccccc3n2)c1 [Compound 14b, N-(3-Methylphenyl)quinoline-2-carboxamide] | 469 (≈ 123 µg/mL) | – | 939 (≈ 246 µg/mL) | – | 101 | 82 to 83 | MIC (M. kansasii CIT11/06; CIT11/06, 120 h): 469 µM (≈ 123 µg/mL)
O=C(NCCc1ccccc1)c1ccc2ccccc2n1 [Compound 11, N-(2-Phenylethyl)quinoline-2-carboxamide] | – | 452 (≈ 125 µg/mL) | 905 (≈ 250 µg/mL) | 452 (≈ 125 µg/mL) | – | – | lethal effect on THP-1 cells at the highest dose achieved in the medium [1]: did not lead to the 100% lethal effect; LD50 [1]: >100 µmol/L
O=C(NC1CCCC1)c1ccc2ccccc2n1 [Compound 5, N-Cyclopentylquinoline-2-carboxamide] | 491 (≈ 118 µg/mL) | – | – | – | 762 | 63 to 64 | MIC (M. kansasii CIT11/06; CIT11/06, 120 h): 491 µM (≈ 118 µg/mL); MIC [3]: 491 µM (≈ 118 µg/mL)
O=C(c1ccc2ccccc2n1)N1CCCC1 [Compound 3, 2-(Pyrrolidin-1-ylcarbonyl)quinoline] | 552 (≈ 125 µg/mL) | 111 (≈ 25.1 µg/mL) | 111 (≈ 25.1 µg/mL) | – | 1600 | – | lethal effect on THP-1 cells at the highest dose achieved in the medium [1]: did not lead to the 100% lethal effect; LD50 [1]: >100 µmol/L
O=C(NC1CCCCCC1)c1ccc2ccccc2n1 [Compound 7, N-Cycloheptylquinoline-2-carboxamide] | – | 466 (≈ 125 µg/mL) | 223 (≈ 59.8 µg/mL) | 466 (≈ 125 µg/mL) | – | – | LD50 [1]: 62 ± 4.5 µmol/L
O=C(Nc1ccccc1)c1ccc2ccccc2n1 [Compound 9, N-Phenylquinoline-2-carboxamide] | – | – | – | – | 85.1 | – | antimycobacterial activity [5]: non-active
O=C(NC1CCCCC1)c1ccc2ccccc2n1 [Compound 6, N-Cyclohexylquinoline-2-carboxamide] | – | 520 (≈ 132 µg/mL) | 520 (≈ 132 µg/mL) | 520 (≈ 132 µg/mL) | 1040 | 98 to 99 | –
NC(=O)c1cnccn1 [PZA, pyrazinamide, reference compound] | > 812 | – | – | – | – | – | MIC (M. kansasii CIT11/06; CIT11/06, 120 h): > 812 µM; MIC [3]: > 812 µM
CCCCCCCCCCCCNC(=O)c1ccc2ccccc2n1 [Compound 2, N-Dodecylquinoline-2-carboxamide] | 367 (≈ 125 µg/mL) | 734 (≈ 250 µg/mL) | 734 (≈ 250 µg/mL) | – | 573 | – | –
CC(C)NC(=O)c1ccc2ccccc2c1 [Compound 20, N-Isopropyl-2-naphthamide] | – | – | – | – | 353 | 174 to 176 | –
